Results as given in patent US20260297087A1, “Pyridoimidazolone Compounds, Preparation Thereof and Therapeutic Uses Thereof” (Sanofi, priority 2023, published 2026).

Key:
[1] = biological target: T1, ERK5 (Homo sapiens, UniProt Q13164); experiment: Inhibition of Cellular ERK5 Activity (cell-based assay, MEF2 luciferase reporter in SN12C cells); settings: renal cancer cell line SN12C, doxycycline-induced MEKSDD, mean where repeated
T1 construct: MEF2-luciferase reporter
Description: (§1) Two assays were performed to assess the ERK5 inhibitory activity of compounds of the Examples, a cell-based assay and a cell-free biochemical assay. Where repeat measurements were taken, the value reported is a mean average.
The renal cancer cell line SN12C was transduced by a lentivirus pGreenFire1 MEF2 EF1 Neo (ref TR030VA-N) from SBI using standard infection protocol. pGreenFire1 MEF2 EF1 Neo allows the expression of luciferase gene under the control of minimal promoter with MEF2 transcriptional response elements. Cells harboring the reporter construct were selected by geneticin treatment. The selected cells were then transposed by a piggyback based plasmid pCM4007 allowing the expression of constitutively activated MEKSDD under control of TREG3 promoter, a doxycycline regulated promoter. Transposed cells were selected by puromycin treatment. Upon doxycycline treatment (1p g/ml) MEKSDD was expressed. MEKSDD activates ERK5 that phosphorylates MEF2C protein. Activated MEF2C protein can bind to its transcriptional response elements. Then the luciferase is expressed. In a 96-well plate (96F nuncleon refl37101 thermofisher), 50,000 cells were inoculated in 142.5 μl of RPMI medium containing 10% fetal calf serum, 1% glutamine, and 1 μg/ml doxycycline. After 24 hours, compounds were added in 7.5 μl culture medium (with 2% DMSO to give a final concentration of 0.1%) in order to obtain the desired concentration (0.3-1000 nM). The luciferase activity was measured using the Kit Bright Glo Luminescent Cell Assay Cat E2610 (Promega) according to the manufacturer's protocol. Luminescence was determined using 0.2 second reading/well using a Tecan SPARK. IC50 values were calculated using XLFIT5 for Microsoft Excel using method 205. The IC50 values represent the concentration of compound which inhibits the measurable luminescence signal by 50% as compared to DMSO-treated control cells.

[2] = biological target: T2, ERK5 (activated catalytic domain) (Homo sapiens, UniProt Q13164); experiment: Cell-Free Assay of ERK5 Inhibition (Time-Resolved FRET, 4EBP1 peptide phosphorylation); assay type: biochemical; settings: ERK5 catalytic domain 4 nM, 1 mM ATP, 1 μM biotinylated 4EBP1 peptide, 30 min at 37° C.; mean where repeated; read-out: Cell-free assay (IC50 in nM)
T2 construct: purchased CarnaBiosciences 04-146
T2 sequence (Q13164 55-347 limits assumed): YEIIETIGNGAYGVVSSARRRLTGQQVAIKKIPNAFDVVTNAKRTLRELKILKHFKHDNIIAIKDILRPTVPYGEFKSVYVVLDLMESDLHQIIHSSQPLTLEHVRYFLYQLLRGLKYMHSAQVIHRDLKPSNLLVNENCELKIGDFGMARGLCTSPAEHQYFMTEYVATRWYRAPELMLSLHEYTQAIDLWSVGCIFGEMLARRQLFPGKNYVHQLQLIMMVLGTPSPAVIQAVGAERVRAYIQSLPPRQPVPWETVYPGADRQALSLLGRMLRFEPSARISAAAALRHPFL
Description: as §1
An assay was performed to measure the capacity of each compound to inhibit ERK5 enzymatic activity. Compound potency was evaluated by Time-Resolved Forster Resonance Energy Transfer (FRET system). The activated catalytic domain of protein ERK5 (CarnaBiosciences #04-146) was mixed at 4 nM with varying concentrations of compound and incubated for 30 minutes at room temperature. A mixture of 1 mM ATP and 1 μM biotinylated synthetic peptide was added (Biosyntan GmbH). This synthetic peptide represents amino acids 30-52 of Eukaryotic translation initiation factor 4E-binding protein 1 (see, e.g., the sequence under accession No. NP_004086.1) biotinylated at the N-terminus. After 30 minutes at 37° C., the peptide phosphorylation by ERK5 was measured by addition of FRET reagents consisting of 12.5 μg/ml Streptavidin-XL665, 1 nM Anti-P-4EBP1 antibody and 300 ng/ml Anti-rabbit-K antibody. Following 90 minutes at room temperature fluorescent signals were read on the Pherastar FSX multimod detector from BMG Labtech (Exc° 340 nm, Em1 620 nm, Em2 665 nm). The IC50 values represent the concentration of compound which inhibits the measurable fluorescence signal by 50% as compared to the DMSO only control.

T1 sequence (Q13164 whole entry): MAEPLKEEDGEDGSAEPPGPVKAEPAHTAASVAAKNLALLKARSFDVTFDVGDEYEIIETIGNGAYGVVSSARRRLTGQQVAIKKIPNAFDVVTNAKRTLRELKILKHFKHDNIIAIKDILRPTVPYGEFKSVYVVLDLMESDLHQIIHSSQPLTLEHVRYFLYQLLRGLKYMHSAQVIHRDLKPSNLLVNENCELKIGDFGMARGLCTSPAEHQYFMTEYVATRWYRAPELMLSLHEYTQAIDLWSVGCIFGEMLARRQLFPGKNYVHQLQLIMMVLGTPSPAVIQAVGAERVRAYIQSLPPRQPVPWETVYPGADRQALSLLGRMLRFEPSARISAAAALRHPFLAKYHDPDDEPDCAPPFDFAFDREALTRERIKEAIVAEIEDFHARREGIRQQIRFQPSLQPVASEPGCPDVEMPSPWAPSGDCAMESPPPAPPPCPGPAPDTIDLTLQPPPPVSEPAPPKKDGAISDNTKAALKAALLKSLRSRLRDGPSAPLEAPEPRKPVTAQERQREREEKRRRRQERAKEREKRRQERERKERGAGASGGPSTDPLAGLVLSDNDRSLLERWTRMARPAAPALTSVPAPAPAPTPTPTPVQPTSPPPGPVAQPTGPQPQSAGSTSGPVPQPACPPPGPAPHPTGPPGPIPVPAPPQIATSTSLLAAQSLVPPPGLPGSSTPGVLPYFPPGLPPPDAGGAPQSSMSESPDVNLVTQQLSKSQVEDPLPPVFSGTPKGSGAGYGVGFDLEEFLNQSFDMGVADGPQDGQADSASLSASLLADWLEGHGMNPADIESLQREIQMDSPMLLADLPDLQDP

Row | IC50 [1] | IC50 [2] | SMILES
1 | 118 nM | 235 nM | CO[C@H]1CC[C@H](c2cnc3[nH]c(=O)n(C4CCN(C(=O)c5ccc(OC(F)(F)F)cc5)CC4)c3c2)CC1 [Example 26, trans-6-(4-methoxycyclohexyl)-1-[1-[4-(trifluoromethoxy)benzoyl]-4-piperidyl]-3H-imidazo[4,5-b]pyridin-2-one]
2 | 67 nM | 502 nM | COCCc1cnc2[nH]c(=O)n(C3CCN(C(=O)c4ccc(OC(F)(F)F)cc4N)CC3)c2c1 [Example 24, 1-[1-[2-amino-4-(trifluoromethoxy)benzoyl]-4-piperidyl]-6-(2-methoxyethyl)-3H-imidazo[4,5-b]pyridin-2-one]
3 | 413 nM | 287 nM | CN1CCC(Oc2cnc3[nH]c(=O)n(C4CCN(C(=O)c5ccc(OC(F)(F)F)cc5)CC4)c3c2)C1 (racemic) [Example 9, (rac)-6-(1-methylpyrrolidin-3-yl)oxy-1-[1-[4-(trifluoromethoxy)benzoyl]-4-piperidyl]-3H-imidazo[4,5-b]pyridin-2-one]
4 | 140 nM | 684 nM | Nc1cc(OC(F)(F)F)ccc1C(=O)N1CCC(n2c(=O)[nH]c3ncc(C4CCNC(=O)C4)cc32)CC1 (racemic) [Example 22, (rac)-1-[1-[2-amino-4-(trifluoromethoxy)benzoyl]-4-piperidyl]-6-(2-oxo-4-piperidyl)-3H-imidazo[4,5-b]pyridin-2-one]
5 | 117 nM | 78 nM | CN1CCC(Oc2cnc3[nH]c(=O)n(C4CCN(C(=O)c5ccc(OC(F)(F)F)cc5N)CC4)c3c2)C1 (single isomer, unassigned; isomer 2) [Example 48, 1-[1-[2-amino-4-(trifluoromethoxy)benzoyl]-4-piperidyl]-6-[1-methylpyrrolidin-3-yl]oxy-3H-imidazo[4,5-b]pyridin-2-one, Isomer 2]
6 | 199 nM | 257 nM | O=C(c1ccc(S(F)(F)(F)(F)F)cc1)N1CCC(n2c(=O)[nH]c3ncc(C4CCOCC4)cc32)CC1 [Example 19, 1-[1-[4-(Pentafluoro-λ^6-sulfanyl)benzoyl]-4-piperidyl]-6-tetrahydropyran-4-yl-3H-imidazo[4,5-b]pyridin-2-one]
7 | 199 nM | 643 nM | CO[C@H]1CC[C@@H](c2cnc3[nH]c(=O)n(C4CCN(C(=O)c5ccc(OC(F)(F)F)cc5N)CC4)c3c2)CC1 [Example 46, cis-1-[1-[2-amino-4-(trifluoromethoxy)benzoyl]-4-piperidyl]-6-(4-methoxycyclohexyl)-3H-imidazo[4,5-b]pyridin-2-one]
8 | 178 nM | 198 nM | O=C(c1ccc(OC(F)(F)F)cc1)N1CCC(n2c(=O)[nH]c3ncc(C4CCCC4)cc32)CC1 [Example 17, 6-Cyclopentyl-1-[1-[4-(trifluoromethoxy)benzoyl]-4-piperidyl]-3H-imidazo[4,5-b]pyridin-2-one]
9 | 167 nM | 681 nM | Nc1cc(OC(F)(F)F)ccc1C(=O)N1CCC(n2c(=O)[nH]c3ncc(C4CC5CCC4C5)cc32)CC1 (centres unmarked) [Example 37, 1-[1-[2-amino-4-(trifluoromethoxy)benzoyl]-4-piperidyl]-6-norbornan-2-yl-3H-imidazo[4,5-b]pyridin-2-one]
10 | 118 nM | 122 nM | Nc1cc(S(F)(F)(F)(F)F)ccc1C(=O)N1CCC(n2c(=O)[nH]c3ncc(C4CCOCC4)cc32)CC1 [Example 14, 1-[1-[2-Amino-4-(pentafluoro-λ^6-sulfanyl)benzoyl]-4-piperidyl]-6-tetrahydropyran-4-yl-3H-imidazo[4,5-b]pyridin-2-one]
11 | 29 nM | 107 nM | CO[C@H]1CC[C@H](c2cnc3[nH]c(=O)n(C4CCN(C(=O)c5ccc(OC(F)(F)F)cc5N)CC4)c3c2)CC1 [Example 45, trans-1-[1-[2-amino-4-(trifluoromethoxy)benzoyl]-4-piperidyl]-6-(4-methoxycyclohexyl)-3H-imidazo[4,5-b]pyridin-2-one]
12 | 152 nM | 557 nM | O=C(c1ccc(OC(F)(F)F)cc1)N1CCC(n2c(=O)[nH]c3ncc(C4CCOCC4)cc32)CC1 [Example 41, 6-tetrahydropyran-4-yl-1-[1-[4-(trifluoromethoxy)benzoyl]-4-piperidyl]-3H-imidazo[4,5-b]pyridin-2-one]
13 | 486 nM | 1100 nM | Cc1nc2[nH]c(=O)n(C3CCN(C(=O)c4ccc(OC(F)(F)F)cc4N)CC3)c2cc1C1CCOCC1 [Example 20, 1-[1-[2-amino-4-(trifluoromethoxy)benzoyl]-4-piperidyl]-5-methyl-6-tetrahydropyran-4-yl-3H-imidazo[4,5-b]pyridin-2-one]
14 | 2150 nM | 30000 nM | CC(C)(C)OC(=O)Nc1cc(OC(F)(F)F)ccc1C(=O)N1CCC(n2c(=O)[nH]c3ncc(Br)cc32)CC1 [Example 59, tert-butyl N-[2-[4-(6-bromo-2-oxo-3H-imidazo[4,5-b]pyridin-1-yl)piperidine-1-carbonyl]-5-(trifluoromethoxy)phenyl]carbamate]
15 | 168 nM | 291 nM | Nc1cc(OC(F)(F)F)ccc1C(=O)N1CCC(n2c(=O)[nH]c3ncc(C4CCCOC4)cc32)CC1 (racemic) [Example 40, (rac)-1-[1-[2-amino-4-(trifluoromethoxy)benzoyl]-4-piperidyl]-6-tetrahydropyran-3-yl-3H-imidazo[4,5-b]pyridin-2-one]
16 | 124 nM | 376 nM | Nc1cc(OC(F)(F)F)ccc1C(=O)N1CCC(n2c(=O)[nH]c3ncc(C45CC(C(F)F)(C4)C5)cc32)CC1 [Example 33, 1-[1-[2-amino-4-(trifluoromethoxy)benzoyl]-4-piperidyl]-6-[3-(difluoromethyl)-1-bicyclo[1.1.1]pentanyl]-3H-imidazo[4,5-b]pyridin-2-one]
17 | 169 nM | 310 nM | Nc1cc(OC(F)(F)F)ccc1C(=O)N1CCC(n2c(=O)[nH]c3ncc(OC4CCOC4)cc32)CC1 (single isomer, unassigned; isomer 2) [Example 44, 1-[1-[2-amino-4-(trifluoromethoxy)benzoyl]-4-piperidyl]-6-[tetrahydrofuran-3-yl]oxy-3H-imidazo[4,5-b]pyridin-2-one, Isomer 2]
18 | 132 nM | 135 nM | O=C(c1ccc(OC(F)(F)F)cc1)N1CCC(n2c(=O)[nH]c3ncc(OC4CCOCC4)cc32)CC1 [Example 4, 6-tetrahydropyran-4-yloxy-1-[1-[4-(trifluoromethoxy)benzoyl]-4-piperidyl]-3H-imidazo[4,5-b]pyridin-2-one]
19 | 641 nM | 1080 nM | O=C(c1ccc(OC(F)(F)F)cc1)N1CCC(n2c(=O)[nH]c3ncc(Br)cc32)CC1 [Example 60, 6-bromo-1-[1-[4-(trifluoromethoxy)benzoyl]-4-piperidyl]-3H-imidazo[4,5-b]pyridin-2-one]
20 | 206 nM | 150 nM | CN1CCC(Oc2cnc3[nH]c(=O)n(C4CCN(C(=O)c5ccc(OC(F)(F)F)cc5)CC4)c3c2)CC1 [Example 5, 6-[(1-methyl-4-piperidyl)oxy]-1-[1-[4-(trifluoromethoxy)benzoyl]-4-piperidyl]-3H-imidazo[4,5-b]pyridin-2-one]
21 | 870 nM | 103 nM | Nc1cc(OC(F)(F)F)ccc1C(=O)N1CCC(n2c(=O)[nH]c3ncc(N4CCO[C@H](CO)C4)cc32)CC1 [Example 10, 1-[1-[2-amino-4-(trifluoromethoxy)benzoyl]-4-piperidyl]-6-[(2S)-2-(hydroxymethyl)morpholin-4-yl]-3H-imidazo[4,5-b]pyridin-2-one]
22 | 279 nM | 505 nM | O=C(c1ccc(OC(F)(F)F)cc1)N1CCC(n2c(=O)[nH]c3ncc(N4CCOCC4)cc32)CC1 [Example 8, 6-N-morpholino-1-[1-[4-(trifluoromethoxy)benzoyl]-4-piperidyl]-3H-imidazo[4,5-b]pyridin-2-one]
